From US6294674A, “Dibenzofuran sulfonamide matrix metalloproteinase inhibitors” (priority 1999, dated 2001)
Where two headings read alike, the source gives them in different places.

Key:
[1] = molecular target: gelatinase A catalytic domain (MMP02); assay: Thiopeptolide assay, gelatinase A catalytic domain (GCD, MMP02); type: biochemical
Protocol: (§1) Hydrolysis of the thiopeptolide substrate Ac-Pro-Leu-Gly-thioester-Leu-Leu-Gly-OEt (Bachem) is used as the primary screen to determine IC50 values for MMP inhibitors. A 100 μL reaction contains 1 mM 5,5'-dithiobis(2-nitrobenzoic acid) (DTNB), 100 μM substrate, 0.1% Brij, enzyme, and inhibitor in the appropriate reaction buffer. Activated full-length enzymes are assayed at 5 nM, Stromelysin Catalytic Domain (SCD) at 10 nM, and Gelatinase A Catalytic Domain (GaCD) at 1 nM. Inhibitors are screened from 100 μM to 1 nM. Full-length enzymes are assayed in 50 mM HEPES, 10 mM CaCl2, pH 7.0; SCD in 50 mM MES, 10 mM CaCl2, pH 6.0; and GaCD in 50 mM MOPS, 10 mM CaCl2, 10 μM ZnCl2, pH 7.0.

[2] = molecular target: T1, stromelysin-1 catalytic domain (MMP03) (Homo sapiens, UniProt P08254); assay: Thiopeptolide assay, stromelysin-1 catalytic domain (SCD, MMP03); type: biochemical
T1 construct: SCD (stromelysin-1 catalytic domain); made in house; host or cells: Escherichia coli
Protocol: as §1

MMP01 = molecular target: T2, MMP01 (Homo sapiens, UniProt P03956); assay: Thiopeptolide assay, MMP01; type: biochemical
T2 construct: purchased Washington University School of Medicine, St. Louis, Mo
T2 sequence (P03956 100-469): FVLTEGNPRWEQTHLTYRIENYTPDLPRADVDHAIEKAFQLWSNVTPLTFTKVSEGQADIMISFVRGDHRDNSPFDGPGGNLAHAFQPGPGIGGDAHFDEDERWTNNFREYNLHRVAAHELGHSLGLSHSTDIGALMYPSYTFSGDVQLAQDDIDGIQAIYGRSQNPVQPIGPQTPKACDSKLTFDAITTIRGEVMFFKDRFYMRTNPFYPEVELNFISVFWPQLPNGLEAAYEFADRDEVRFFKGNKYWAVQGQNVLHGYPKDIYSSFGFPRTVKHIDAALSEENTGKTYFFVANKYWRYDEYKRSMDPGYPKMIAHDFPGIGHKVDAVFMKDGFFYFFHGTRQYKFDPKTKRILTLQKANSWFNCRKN
Protocol: (§2) MMP01, MMP07, MMP09, and MMP13 activity was assayed in a method similar to MMP02 and MMP03 (SCD and GCD). MMP01 and MMP09 can be obtained from Washington University School of Medicine, St. Louis, Mo. MMP07 can be obtained in accordance with the known procedure set forth by Ye QZ, Johnson L. L., and Baragi V., "Gene Syntheses and Expression in E. coli for PUMP, a Human Matrix Metalloproteinase" Biochem. and Biophys. […] MMP 13 can be obtained in accordance with the known procedure set forth by Freije J. M. P., et al., "Molecular Cloning and Expression of Collegenase-3, a Novel Human Matrix Metalloproteinase Produced by Breast Carcinomas" J. Bio.
as §1

MMP07 = molecular target: T3, MMP07 (Homo sapiens, UniProt P09237); assay: Thiopeptolide assay, MMP07; type: biochemical
T3 construct: made in house; host or cells: Escherichia coli
T3 sequence (P09237 95-267): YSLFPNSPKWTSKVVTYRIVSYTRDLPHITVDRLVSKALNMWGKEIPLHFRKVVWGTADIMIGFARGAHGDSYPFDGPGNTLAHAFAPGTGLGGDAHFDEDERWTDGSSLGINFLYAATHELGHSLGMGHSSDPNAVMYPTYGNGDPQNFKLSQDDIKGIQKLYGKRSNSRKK
Protocol: as §2, §1

MMP-13CD = assay: Thiopeptolide assay, MMP-13CD; type: biochemical, human; conditions: Tables 2, 3, 5, 7
Protocol: IC50 values were determined using a thiopeptolide substrate, Ac-Pro-Leu-Gly-thioester-Leu-Leu-Gly-OEt (Ye Q.-Z., Johnson L. L., Hupe D. J., and Baragi V., "Purification and Characterization of the Human Stromelysin Catalytic Domain Expressed in Escherichia coli," Biochemistry, 1992;31:11231-11235). MMP01, MMP07, MMP09, and MMP13 activity was assayed in a method similar to MMP02 and MMP03 (SCD and GCD). MMP01 and MMP09 can be obtained from Washington University School of Medicine, St. Louis, Mo. MMP07 can be obtained in accordance with the known procedure set forth by Ye QZ, Johnson L. L., and Baragi V., "Gene Syntheses and Expression in E. coli for PUMP, a Human Matrix Metalloproteinase" Biochem. and Biophys. Res. Comm., 1992; 186:143-149. MMP 13 can be obtained in accordance with the known procedure set forth by Freije J. M. P., et al., "Molecular Cloning and Expression of Collegenase-3, a Novel Human Matrix Metalloproteinase Produced by Breast Carcinomas" J. Bio. Chem., 1994;269:16766-6773.
as §1, with “7.0. The change in absorbance at 405 riM is monitored on a ThermoMax microplate reader at room temperature continuously for 20 minutes.” for “7.0.”

[3] = Table 1, GCD, read-out: IC50 MMP02
[4] = Table 1, SCD, read-out: IC50 MMP03
[5] = Tables 2, 3, 5, 7, read-out: IC50 MMP1
[6] = Tables 2, 3, 5, 7, read-out: IC50 MMP-2CD
[7] = Tables 2, 3, 5, 7, read-out: IC50 MMP 3CD
[8] = Tables 2, 3, 5, 7, read-out: IC50 MMP-7

T1 sequence (P08254 100-272 limits assumed): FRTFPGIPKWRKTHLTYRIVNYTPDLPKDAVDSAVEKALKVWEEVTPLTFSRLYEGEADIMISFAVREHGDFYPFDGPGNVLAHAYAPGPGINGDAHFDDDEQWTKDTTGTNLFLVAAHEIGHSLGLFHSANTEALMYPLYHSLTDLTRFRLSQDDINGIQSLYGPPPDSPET

Structure (SMILES)	IC50 [1, 3] [µM]	IC50 [2, 4] [µM]	IC50 (MMP01; Table 1, read-out: IC50 MMP01) [µM]	IC50 (MMP07; Table 1, read-out: IC50 MMP07) [µM]	IC50 (MMP01; [5]) [µM]	IC50 [1, 6] [µM]	IC50 [2, 7] [µM]	IC50 (MMP07; [8]) [µM]	IC50 (MMP-13CD) [µM]
CC(C)C[C@H](CNS(=O)(=O)c1ccc2oc3ccccc3c2c1)CC(=O)O [Example 2, 2(S)-3-[(Dibenzofuran-2-sulfonylamino)-methyl]-5-methyl-hexanoic acid]	100	86	–	–	–	–	–	–	–
O=C(NCCCC[C@H](NS(=O)(=O)c1ccc2oc3ccccc3c2c1)C(=O)O)OCc1ccccc1 [Example 3, 6-Benzyloxycarbonylamino-2-(dibenzofuran-2-sulfonylamino)-hexanoic acid]	0.35	0.18	62	3.3	–	–	–	–	–
CC(C)(Oc1ccc(Cl)cc1)C(=O)NCCCCC(NS(=O)(=O)c1ccc2oc3ccccc3c2c1)C(=O)O (stereo not drawn) [Example A1, 6-[2-(4-Chloro-phenoxy)-2-methyl-propionylamino]-2-(dibenzofuran-2-sulfonylamino)-hexanoic acid]	–	–	–	–	> 100	5.2	9.6	> 100	11
O=C(Cc1ccccc1C(F)(F)F)NCCCCC(NS(=O)(=O)c1ccc2oc3ccccc3c2c1)C(=O)O (stereo not drawn) [Example A4, 2-(Dibenzofuran-2-sulfonylamino)-6-[2-(2-trifluoromethyl-phenyl)-acetylamino]-hexanoic acid]	–	–	–	–	> 100	2.7	4.6	> 100	3.7
O=C(Cc1cccs1)NCCCCC(NS(=O)(=O)c1ccc2oc3ccccc3c2c1)C(=O)O (stereo not drawn) [Example A5, 2-(Dibenzofuran-2-sulfonylamino)-6-(2-thiophen-2-yl-acetylamino)-hexanoic acid]	–	–	–	–	> 100	0.9	0.5	35.6	1.1
CCC(Oc1ccccc1)C(=O)NCCCCC(NS(=O)(=O)c1ccc2oc3ccccc3c2c1)C(=O)O (stereo not drawn) [Example A6, 2-(Dibenzofuran-2-sulfonylamino)-6-(2-phenoxy-butrylamino)-hexanoic acid]	–	–	–	–	> 100	1.5	3.9	> 100	8
O=C(COc1ccccc1)NCCCCC(NS(=O)(=O)c1ccc2oc3ccccc3c2c1)C(=O)O (stereo not drawn) [Example A8, 2-(Dibenzofuran-2-sulfonylamino)-6-(2-phenoxy-acetylamino)-hexanoic acid]	–	–	–	–	> 100	1.6	2.5	> 100	4.8
CC(C)(C)c1ccc(OCC(=O)NCCCCC(NS(=O)(=O)c2ccc3oc4ccccc4c3c2)C(=O)O)cc1 (stereo not drawn) [Example A10, 6-[2-(4-tert-Butyl-phenoxy)actylamino]-2-(dibenzofuran-2-sulfonylamino)-hexanoic acid]	–	–	–	–	> 100	9.4	26.5	> 100	63
O=C(CC1=CCCC1)NCCCCC(NS(=O)(=O)c1ccc2oc3ccccc3c2c1)C(=O)O (stereo not drawn) [Example A12]	–	–	–	–	> 100	0.6	1	64.9	1.7
COc1ccc(OCC(=O)NCCCCC(NS(=O)(=O)c2ccc3oc4ccccc4c3c2)C(=O)O)cc1 (stereo not drawn) [Example A13, 2-(Dibenzofuran-2-sulfonylamino)-6-[2-(4-methoxy-phenoxy)-acetylamino]-hexanoic acid]	–	–	–	–	> 100	1.2	2.3	> 100	7.3
O=C(COc1cccc2ccccc12)NCCCCC(NS(=O)(=O)c1ccc2oc3ccccc3c2c1)C(=O)O (stereo not drawn) [Example A14, 2-(Dibenzofuran-2-sulfonylamino)-6-[2-(naphthalen-1-yloxy)acetylamino]-hexanoic acid]	–	–	–	–	> 100	7.8	5.2	> 100	42.6
Cc1cc(OCCCC(=O)NCCCCC(NS(=O)(=O)c2ccc3oc4ccccc4c3c2)C(=O)O)ccc1Cl (stereo not drawn) [Example A16, 6-[4-(4-Chloro-3-methyl-phenoxy)-butyrylamino]-2-(dibenzofuran-2-sulfonylamino)-hexanoic acid]	–	–	–	–	> 100	5.5	6.5	> 100	34.4
COc1ccc(CCC(=O)NCCCCC(NS(=O)(=O)c2ccc3oc4ccccc4c3c2)C(=O)O)cc1 (stereo not drawn) [Example A17, 2-(Dibenzofuran-2-sulfonylamino)-6-[3-(4-methoxy-phenyl)-propionylamino]-hexanoic acid]	–	–	–	–	> 100	0.7	0.9	53.3	4.4
O=C(Cc1ccc2c(c1)OCO2)NCCCCC(NS(=O)(=O)c1ccc2oc3ccccc3c2c1)C(=O)O (stereo not drawn) [Example A19, 6-(2-Benzo[1,3]dioxol-5-yl-acetylamino)-2-(dibenzofuran-2-sulfonylamino)-hexanoic acid]	–	–	–	–	> 100	1	1.7	92.9	3
O=C(CCCc1ccc([N+](=O)[O-])cc1)NCCCCC(NS(=O)(=O)c1ccc2oc3ccccc3c2c1)C(=O)O (stereo not drawn) [Example A21, 2-(Dibenzofuran-2-sulfonylamino)-6-[4-(4-nitro-phenyl)-butyrylamino]-hexanoic acid]	–	–	–	–	> 100	3.3	7.5	> 100	9.2
O=C(CCc1ccncc1)NCCCCC(NS(=O)(=O)c1ccc2oc3ccccc3c2c1)C(=O)O (stereo not drawn) [Example A22, 2-(Dibenzofuran-2-sulfonylamino)-6-(3-pyridin4-yl-propionylamino)-hexanoic Acid]	–	–	–	–	> 100	3	9	> 100	10
COc1ccccc1CCC(=O)NCCCCC(NS(=O)(=O)c1ccc2oc3ccccc3c2c1)C(=O)O (stereo not drawn) [Example A25]	–	–	–	–	> 100	1.8	5.2	> 100	5.2
